Reference: PubChem BioAssay AID330 (DTP/NCI, 2004)
“And” between values parts separate entries of the source, which are not always exact repeats. Equal entries are not always repeated. Inconclusive results and toxic doses are left out.

System: P388 leukemia ip, CD2F1 mice, survival T/C
Experiment: NCI In Vivo Anticancer Drug Screen. Data for tumor model P388 Leukemia (intraperitoneal) in CD2F1 (CDF1) mice
Conditions: endpoint: median survival time, higher = longer survival
Outline: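 Mice carrying the transplanted tumor received test compound or vehicle. Survival was recorded in each group, and the value is the treated-group measurement divided by that of the vehicle-treated control group.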

[1] = dose: 25.0 mg/kg/injection, schedule: Q01DX009 (ip), vehicle: saline with Tween-80
[2] = dose: 50.0 mg/kg/injection, schedule: Q01DX009 (ip), vehicle: saline with Tween-80
[3] = dose: 100.0 mg/kg/injection, schedule: Q01DX009 (ip), vehicle: saline with Tween-80
[4] = dose: 200.0 mg/kg/injection, schedule: Q01DX009 (ip), vehicle: saline with Tween-80
[5] = dose: 60.0 mg/kg/injection, schedule: Q01DX005 (ip), vehicle: saline with Tween-80
[6] = dose: 120.0 mg/kg/injection, schedule: Q01DX005 (ip), vehicle: saline with Tween-80
[7] = dose: 12.5 mg/kg/injection, schedule: Q01DX009 (ip), vehicle: Klucel (hydroxypropylcellulose) (HPC)
[8] = dose: 25.0 mg/kg/injection, schedule: Q01DX009 (ip), vehicle: Klucel (hydroxypropylcellulose) (HPC)
[9] = dose: 50.0 mg/kg/injection, schedule: Q01DX009 (ip), vehicle: Klucel (hydroxypropylcellulose) (HPC)
[10] = dose: 100.0 mg/kg/injection, schedule: Q01DX009 (ip), vehicle: Klucel (hydroxypropylcellulose) (HPC)
[11] = dose: 200.0 mg/kg/injection, schedule: Q01DX009 (ip), vehicle: Klucel (hydroxypropylcellulose) (HPC)
[12] = dose: 50.0 mg/kg/injection, schedule: Q01DX005 (ip), vehicle: saline with Tween-80
[13] = dose: 100.0 mg/kg/injection, schedule: Q01DX005 (ip), vehicle: saline with Tween-80
[14] = dose: 200.0 mg/kg/injection, schedule: Q01DX005 (ip), vehicle: saline with Tween-80
[15] = dose: 50.0 mg/kg/injection, schedule: Q01DX009 (ip), vehicle: saline
[16] = dose: 100.0 mg/kg/injection, schedule: Q01DX009 (ip), vehicle: saline
[17] = dose: 200.0 mg/kg/injection, schedule: Q01DX009 (ip), vehicle: saline
[18] = dose: 50.0 mg/kg/injection, schedule: Q01DX005 (ip), vehicle: Klucel (hydroxypropylcellulose) (HPC)
[19] = dose: 100.0 mg/kg/injection, schedule: Q01DX005 (ip), vehicle: Klucel (hydroxypropylcellulose) (HPC)
[20] = dose: 200.0 mg/kg/injection, schedule: Q01DX005 (ip), vehicle: Klucel (hydroxypropylcellulose) (HPC)
[21] = dose: 100.0 mg/kg/injection, schedule: Q04DX002 (ip), vehicle: Klucel (hydroxypropylcellulose) (HPC)
[22] = dose: 200.0 mg/kg/injection, schedule: Q04DX002 (ip), vehicle: Klucel (hydroxypropylcellulose) (HPC)
[23] = dose: 400.0 mg/kg/injection, schedule: Q04DX002 (ip), vehicle: Klucel (hydroxypropylcellulose) (HPC)
[24] = dose: 12.5 mg/kg/injection, schedule: Q01DX009 (ip), vehicle: saline with Tween-80

For `COC(=O)c1[nH]c(=O)[nH]c(=O)c1F`, the T/C (dose: 8.0 mg/kg/injection, schedule: Q01DX009 (ip), vehicle: saline with Tween-80) was 118 % of control, the T/C (dose: 16.0 mg/kg/injection, schedule: Q01DX009 (ip), vehicle: saline with Tween-80) was 104 % of control and the T/C (dose: 22.0 mg/kg/injection, schedule: Q04DX003 (ip), vehicle: saline with Tween-80) was 110 % of control. For the same molecule, the T/C [1] was 100 % of control, the T/C [2] was 100 % of control and the T/C (dose: 50.0 mg/kg/injection, schedule: Q04DX003 (ip), vehicle: saline with Tween-80) was 155 % of control. For the same molecule, the T/C [3] was 90 % of control.

`N#C/C(=C/c1ccccc1)c1ccccc1` was tested, and the T/C [2] was 87 % of control, the T/C [3] was 88 % of control and the T/C [4] was 88 % of control. For the same molecule, the T/C (dose: 400.0 mg/kg/injection, schedule: Q01DX009 (ip), vehicle: saline with Tween-80) was 102 % of control.

With `Cc1cc(OCc2nnc3n2S(=O)(=O)c2ccccc2N3C)ccc1Cl` the T/C [5] was 87 % of control and the T/C [6] was 90 % of control.

For `O=c1oc2ccc3ccccc3c2cc1-n1nnc2ccccc21`, the T/C [5] was 91 % of control and the T/C [6] was 90 % of control.

For `Cc1ccc(S(=O)(=O)N(C)C2c3ccccc3Oc3ccccc32)cc1`, the T/C [7] was 106 % of control, the T/C [8] was 106 % of control and the T/C [9] was 106 % of control and 87 % of control. The T/C [10] was 91 % of control, the T/C [11] was 92 % of control and the T/C (dose: 400.0 mg/kg/injection, schedule: Q01DX009 (ip), vehicle: Klucel (hydroxypropylcellulose) (HPC)) was 92 % of control.

With `CCC1=C[C@@H]2C[C@](C(=O)OC)(c3cc4c(cc3OC)N(C)[C@H]3[C@@](O)(C(=O)OC)[C@H](OC(C)=O)[C@]5(CC)C=CCN6CC[C@]43[C@@H]65)c3[nH]c4ccccc4c3CCN(C1)[C@@H]2O` the T/C (dose: 2.5 mg/kg/injection, schedule: Q01DX001 (ip), vehicle: water) was 117 % of control, the T/C (dose: 20.0 mg/kg/injection, schedule: Q01DX001 (ip), vehicle: water) was 153 % of control and 159 % of control and the T/C (dose: 40.0 mg/kg/injection, schedule: Q01DX001 (ip), vehicle: water) was 161 % of control and 170 % of control. The T/C (dose: 80.0 mg/kg/injection, schedule: Q01DX001 (ip), vehicle: water) was 180 % of control and the T/C (dose: 160.0 mg/kg/injection, schedule: Q01DX001 (ip), vehicle: water) was 93 % of control.

In the case of `C=CC1=C(C)C2=NC1=CC1=NC(=CC3=C(C)C4=C(O)C(C(=O)OC)C(=C5NC(=C2)C(C)C5CCC(=O)OC/C=C(\C)CCCC(C)CCCC(C)CCCC(C)C)C4=N3)C(CC)=C1C` (centres undefined), the T/C [12] was 90 % of control, the T/C [13] was 92 % of control and the T/C [14] was 92 % of control.

For `CC(=O)Oc1cccnc1[N+](=O)[O-]`, the T/C (dose: 12.5 mg/kg/injection, schedule: Q01DX009 (ip), vehicle: saline) was 103 % of control and 106 % of control, the T/C (dose: 25.0 mg/kg/injection, schedule: Q01DX009 (ip), vehicle: saline) was 100 % of control and 101 % of control and the T/C [15] was 102 % of control and 120 % of control and 94 % of control. The T/C [16] was 106 % of control and 108 % of control and 123 % of control, the T/C [17] was 105 % of control and 119 % of control and the T/C (dose: 400.0 mg/kg/injection, schedule: Q01DX009 (ip), vehicle: saline) was 105 % of control.

For `C(=C\CSc1ccccn1)/CSc1ccccn1`, the T/C [7] was 107 % of control, the T/C [8] was 99 % of control and the T/C [9] was 90 % of control and 91 % of control. The T/C [11] was 91 % of control.

With `O=C1OC(=O)C2CCCC1C2` the T/C [9] was 108 % of control, the T/C [10] was 102 % of control and the T/C [11] was 102 % of control.

In the case of `CCCCOc1ccc(C(C)c2cc3c(cc2OC)OCO3)cc1` (centres undefined), the T/C (dose: 25.0 mg/kg/injection, schedule: Q01DX005 (ip), vehicle: Klucel (hydroxypropylcellulose) (HPC)) was 107 % of control, the T/C [18] was 95 % of control and the T/C [19] was 101 % of control. The T/C [20] was 98 % of control.

In the case of `Nc1cc2ncccc2c2ccccc12`, the T/C [15] was 100 % of control and 98 % of control, the T/C [16] was 109 % of control and the T/C [17] was 106 % of control and 89 % of control.

`O=c1ccc2cc3ccoc3c(OCCCCCCCCCCCCOc3c4occc4cc4ccc(=O)oc34)c2o1` was tested, and the T/C (dose: 6.25 mg/kg/injection, schedule: Q01DX005 (ip), vehicle: saline with Tween-80) was 100 % of control, the T/C (dose: 12.5 mg/kg/injection, schedule: Q01DX005 (ip), vehicle: saline with Tween-80) was 100 % of control and the T/C (dose: 25.0 mg/kg/injection, schedule: Q01DX005 (ip), vehicle: saline with Tween-80) was 88 % of control.

In the case of `CCN(CC)CCNc1ccc(COC(=O)NC)c2oc3ccc(OS(=O)(=O)c4ccc(C)cc4)cc3c(=O)c12`, the T/C (dose: 25.0 mg/kg/injection, schedule: Q01DX005 (ip), vehicle: water) was 89 % of control, the T/C (dose: 50.0 mg/kg/injection, schedule: Q01DX005 (ip), vehicle: water) was 93 % of control and the T/C (dose: 100.0 mg/kg/injection, schedule: Q01DX005 (ip), vehicle: water) was 90 % of control. The T/C (dose: 200.0 mg/kg/injection, schedule: Q01DX005 (ip), vehicle: water) was 93 % of control.

With `C/C(=N\NC(=O)c1ccccc1)C(=O)O` the T/C [21] was 106 % of control, the T/C [22] was 100 % of control and the T/C [23] was 99 % of control.

`CCCCC(=O)C(=O)c1ccc(O)c(C)c1O` was tested, and the T/C [2] was 96 % of control, the T/C [3] was 93 % of control and the T/C [4] was 96 % of control.

In the case of `CN1C(=O)CCCCCCCCCCSc2ccccc21`, the T/C [18] was 93 % of control, the T/C [19] was 97 % of control and the T/C [20] was 88 % of control.

`CC1(C(N)=O)CCSc2ccccc2C1=O` (centres undefined) was tested, and the T/C [12] was 95 % of control, the T/C [13] was 92 % of control and the T/C [14] was 94 % of control.

With `Cc1cc2c(=O)[nH]c(N)nc2[nH]1` the T/C (dose: 12.5 mg/kg/injection, schedule: Q01DX009 (ip), vehicle: suspension in saline) was 99 % of control, the T/C (dose: 25.0 mg/kg/injection, schedule: Q01DX009 (ip), vehicle: suspension in saline) was 115 % of control and the T/C (dose: 50.0 mg/kg/injection, schedule: Q01DX009 (ip), vehicle: suspension in saline) was 113 % of control and 116 % of control.

`CCOC(=O)c1cc2c(=O)oc3ccccc3c2oc1=O` was tested, and the T/C [24] was 105 % of control, the T/C [1] was 98 % of control and the T/C [2] was 100 % of control.

With `COc1cccc2c1C(=O)c1c(O)c3c(c(O)c1C2=O)C[C@@](O)(C(C)O)C[C@@H]3OC1CC(N2CCC(OC)CC2)C(O)C(C)O1` (some centres undefined) the T/C (dose: 0.78 mg/kg/injection, schedule: Q04DX003 (ip), vehicle: water) was 112 % of control, the T/C (dose: 1.56 mg/kg/injection, schedule: Q04DX003 (ip), vehicle: water) was 114 % of control and the T/C (dose: 3.12 mg/kg/injection, schedule: Q04DX003 (ip), vehicle: water) was 111 % of control and 117 % of control. For the same molecule, the T/C (dose: 6.25 mg/kg/injection, schedule: Q04DX003 (ip), vehicle: water) was 188 % of control, the T/C (dose: 12.5 mg/kg/injection, schedule: Q04DX003 (ip), vehicle: water) was 158 % of control and 240 % of control and the T/C (dose: 25.0 mg/kg/injection, schedule: Q04DX003 (ip), vehicle: water) was 118 % of control.

`CC1(C)CC(=N/O)/C(=N/O)C(=N\NC(N)=S)/C1` was tested, and the T/C [5] was 97 % of control, the T/C [6] was 94 % of control and the T/C (dose: 240.0 mg/kg/injection, schedule: Q01DX005 (ip), vehicle: saline with Tween-80) was 97 % of control.

With `Nc1nc(N)c2cc(CNc3ccc(Cl)c(Cl)c3)ccc2n1` the T/C (dose: 6.25 mg/kg/injection, schedule: Q01DX009 (ip), vehicle: saline with Tween-80) was 107 % of control, the T/C [24] was 110 % of control and the T/C [1] was 109 % of control.

With `C=COC(=O)C(Cc1ccc([N+](=O)[O-])cc1)NC(=O)OCc1ccccc1` (centres undefined) the T/C [21] was 97 % of control, the T/C [22] was 100 % of control and the T/C [23] was 92 % of control.

For `COc1cc2c(cc1O)CC1c3c(cc(O)c(OC)c3-2)CCN1C` (centres undefined), the T/C [12] was 98 % of control and the T/C [13] was 87 % of control.

With `CN(C)C(=O)NO` the T/C (dose: 60.0 mg/kg/injection, schedule: Q01DX005 (ip), vehicle: saline) was 103 % of control, the T/C (dose: 120.0 mg/kg/injection, schedule: Q01DX005 (ip), vehicle: saline) was 99 % of control and the T/C (dose: 240.0 mg/kg/injection, schedule: Q01DX005 (ip), vehicle: saline) was 97 % of control.
